Among the data in patent US20240199546A1, “INHIBITORS OF SOLUTE CARRIER FAMILY 6A MEMBER 19 (SLC6A19) AND METHODS OF USE THEREOF” (Maze Therapeutics, Inc., priority 2022, published 2024) are IC50 values, retold here.

SMILES strings stand for the structures.

The assay concerns the target T1, human SLC6A19 and TMEM27 (Homo sapiens, UniProt Q695T7).
T1 construct: expressed in transfected cells
T1 sequence (Q695T7 1-634): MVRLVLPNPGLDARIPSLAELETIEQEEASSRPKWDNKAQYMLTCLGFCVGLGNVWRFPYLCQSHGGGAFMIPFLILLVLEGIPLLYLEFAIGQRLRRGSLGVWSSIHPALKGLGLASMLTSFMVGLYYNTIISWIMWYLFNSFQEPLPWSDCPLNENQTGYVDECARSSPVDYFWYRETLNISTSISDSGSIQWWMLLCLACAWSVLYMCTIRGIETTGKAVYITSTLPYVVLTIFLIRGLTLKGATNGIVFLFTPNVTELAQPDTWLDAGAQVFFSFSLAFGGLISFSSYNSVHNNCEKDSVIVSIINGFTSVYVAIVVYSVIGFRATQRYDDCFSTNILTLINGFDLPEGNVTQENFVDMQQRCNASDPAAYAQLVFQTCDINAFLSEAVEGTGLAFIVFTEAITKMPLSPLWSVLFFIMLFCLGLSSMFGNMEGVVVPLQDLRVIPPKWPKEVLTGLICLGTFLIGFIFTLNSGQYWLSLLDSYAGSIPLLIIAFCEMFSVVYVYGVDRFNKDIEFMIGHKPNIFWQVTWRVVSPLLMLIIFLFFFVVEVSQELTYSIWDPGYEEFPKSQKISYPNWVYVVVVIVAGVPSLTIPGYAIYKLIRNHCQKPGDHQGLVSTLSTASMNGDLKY
T1 sequence (Q9HBJ8 15-222 partner): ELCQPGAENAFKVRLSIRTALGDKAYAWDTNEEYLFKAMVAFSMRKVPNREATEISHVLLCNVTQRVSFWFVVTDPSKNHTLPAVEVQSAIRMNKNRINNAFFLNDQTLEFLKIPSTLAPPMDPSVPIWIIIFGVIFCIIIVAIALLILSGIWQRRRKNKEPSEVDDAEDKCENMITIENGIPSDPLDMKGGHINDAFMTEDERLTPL
The experiment in a line: Radiolabelled (3H) leucine uptake in CHO cells with doxycycline-inducible expression of human SLC6A19 and TMEM27 (Example B-1). The conditions noted are these: CHO cells with doxycycline-inducible expression of human SLC6A19 and TMEM27, read-out: SLC6A19_Radioligand Uptake Assay IC50. The class given is cell-based. A digest of the protocol: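 CHO cells were induced with doxycycline for 18 h at 37 °C, washed in HBSS, then exposed to compounds for 1 h: 8-point, 3-fold dilutions in duplicate, 0.5% DMSO final. Uptake measured by scintillation counting after 2 h shaking. Activity normalized with positive control as 0% and DMSO as 100%.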
As to `CC1(C(=O)NCc2cc3cc(F)c(OCc4cscn4)cc3[nH]2)CCC1` [Compound 507, N-((5-fluoro-6-(thiazol-4-ylmethoxy)-1H-indol-2-yl)methyl)-1-methylcyclobutane-1-carboxamide], the half-inhibitory concentration (IC50) amounted to 327 nM.
Next, `COc1cc2cc(CNC(=O)C3(C)CC3)[nH]c2cc1CCn1cccn1` [Compound 587, N-((6-(2-(1H-pyrazol-1-yl)ethyl)-5-methoxy-1H-indol-2-yl)methyl)-1-methylcyclopropane-1-carboxamide]: 260 nM; `O=C(NCc1cc2cc(Cl)c(OCc3cscn3)cc2[nH]1)C1CC12CCC2` (stereo not shown) [Compound 558, N-((5-chloro-6-(thiazol-4-ylmethoxy)-1H-indol-2-yl)methyl)spiro[2.3]hexane-1-carboxamide]: 1030 nM; `Cc1cc(COc2cc3[nH]c(CNC(=O)C4(C)COC4)cc3cc2Cl)on1` [Compound 273, N-((5-chloro-6-((3-methylisoxazol-5-yl)methoxy)-1H-indol-2-yl)methyl)-3-methyloxetane-3-carboxamide]: 567 nM.
Next, `CC(=O)C(=O)NCc1cc2cc(Cl)c(OCc3cc(C)no3)cc2[nH]1` [Compound 582, N-((5-chloro-6-((3-methylisoxazol-5-yl)methoxy)-1H-indol-2-yl)methyl)-2-oxopropanamide]: 455 nM; `CC1(C(=O)NCc2cc3cc(OC(F)(F)F)c(OCc4cscn4)cc3[nH]2)CC1` [Compound 434, 1-methyl-N-((6-(thiazol-4-ylmethoxy)-5-(trifluoromethoxy)-1H-indol-2-yl)methyl)cyclopropane-1-carboxamide]: 263 nM.
On to `[2H]C([2H])([2H])C1(C(=O)NCc2cc3cc(F)c(OCc4cscn4)cc3[nH]2)CC1` [Compound 482, N-((5-fluoro-6-(thiazol-4-ylmethoxy)-1H-indol-2-yl)methyl)-1-(methyl-d3)cyclopropane-1-carboxamide], for which the IC50 was determined as 149 nM.
In the case of `O=C(NCc1cc2cc(F)c(OCc3cocn3)cc2[nH]1)C1CC1` [Compound 428, N-((5-fluoro-6-(oxazol-4-ylmethoxy)-1H-indol-2-yl)methyl)cyclopropanecarboxamide] it was 161 nM; in that of `O=C(NCc1cc2cc(Cl)c(OCc3cscn3)cc2[nH]1)C1CCC1` [Compound 490, N-((5-chloro-6-(thiazol-4-ylmethoxy)-1H-indol-2-yl)methyl)cyclobutanecarboxamide], 178 nM; in that of `Cc1cc(COc2cc3[nH]c(CNC(=O)[C@H]4CCN4)cc3cc2Cl)on1` [Compound 616, (R)-N-((5-chloro-6-((3-methylisoxazol-5-yl)methoxy)-1H-indol-2-yl)methyl)azetidine-2-carboxamide], 2730 nM.
Next, `CC(=O)NCc1cc2cc(F)c(OCc3ccon3)cc2[nH]1` [Compound 207, N-((5-fluoro-6-(isoxazol-3-ylmethoxy)-1H-indol-2-yl)methyl)acetamide]: 926 nM; `Cc1cc(COc2cc3[nH]c(CNC(=O)[C@@H]4CCN4C)cc3cc2Cl)on1` [Compound 576, (S)-N-((5-chloro-6-((3-methylisoxazol-5-yl)methoxy)-1H-indol-2-yl)methyl)-1-methylazetidine-2-carboxamide]: 824 nM.
In the case of `CC1(C(=O)NCc2cc3cc(F)c(CNc4ccon4)cc3[nH]2)CC1` [Compound 611, N-((5-fluoro-6-((isoxazol-3-ylamino)methyl)-1H-indol-2-yl)methyl)-1-methylcyclopropane-1-carboxamide], the half-inhibitory concentration (IC50) was determined as 842 nM.
Regarding `CC(=O)NCc1cc2c(F)cc(OCc3ccon3)cc2[nH]1` [Compound 453, N-((4-fluoro-6-(isoxazol-3-ylmethoxy)-1H-indol-2-yl)methyl)acetamide], the IC50 was 859 nM.
In the case of `CC1(C(=O)NCc2[nH]c3cc(OCc4cscn4)ccc3c2C(F)(F)F)CC1` [Compound 640, 1-methyl-N-((6-(thiazol-4-ylmethoxy)-3-(trifluoromethyl)-1H-indol-2-yl)methyl)cyclopropane-1-carboxamide] it was 666 nM.
In the case of `CCc1cc(COc2ccc3cc(CNC(=O)C4(C)CC4)[nH]c3c2)no1` [Compound 185, N-((6-((5-ethylisoxazol-3-yl)methoxy)-1H-indol-2-yl)methyl)-1-methylcyclopropane-1-carboxamide] it was 1050 nM; in that of `Cc1cc(COc2cc3[nH]c(CNC(=O)NC4CC4)cc3cc2Cl)on1` [Compound 636, 1-((5-chloro-6-((3-methylisoxazol-5-yl)methoxy)-1H-indol-2-yl)methyl)-3-cyclopropylurea], 164 nM; in that of `CC1(C(=O)NCc2cc3cc(Cl)c(CNc4cccnc4)cc3[nH]2)CC1` [Compound 610, N-((5-chloro-6-((pyridin-3-ylamino)methyl)-1H-indol-2-yl)methyl)-1-methylcyclopropane-1-carboxamide], 991 nM.
In the case of `CC1(C(=O)NCc2cc3cc(C4(F)CC4)c(OCc4ccon4)cc3[nH]2)CC1` [Compound 655, N-((5-(1-fluorocyclopropyl)-6-(isoxazol-3-ylmethoxy)-1H-indol-2-yl)methyl)-1-methylcyclopropane-1-carboxamide] it was more than 7300 nM; in that of `CN1CCC1C(=O)NCc1cc2cc(Cl)c(OCc3cscn3)cc2[nH]1` (racemic) [Compound 669, N-((5-chloro-6-(thiazol-4-ylmethoxy)-1H-indol-2-yl)methyl)-1-methylazetidine-2-carboxamide], 3880 nM; in that of `CC1(C(=O)NCc2cc3cc(F)c(OCc4cc(C(F)(F)F)on4)cc3[nH]2)CC1` [Compound 72, N-((5-fluoro-6-((5-(trifluoromethyl)isoxazol-3-yl)methoxy)-1H-indol-2-yl)methyl)-1-methylcyclopropane-1-carboxamide], 1240 nM.
As for `Cc1cc(COc2cc3[nH]c(CNC(=O)C(C)C#N)cc3cc2Cl)on1` (racemic) [Compound 486, (S)-N-((5-chloro-6-((3-methylisoxazol-5-yl)methoxy)-1H-indol-2-yl)methyl)-2-cyanopropanamide and (R)-N-((5-chloro-6-((3-methylisoxazol-5-yl)methoxy)-1H-indol-2-yl)methyl)-2-cyanopropanamide], the IC50 was determined as 387 nM.
Next, `Cc1cc(COc2cc3[nH]c(CNC(=O)N4CC(F)(F)C4)cc3cc2Cl)on1` [Compound 370, N-((5-chloro-6-((3-methylisoxazol-5-yl)methoxy)-1H-indol-2-yl)methyl)-3,3-difluoroazetidine-1-carboxamide]: 486 nM; `CC1CC(C(=O)NCc2cc3cc(Cl)c(OCc4cscn4)cc3[nH]2)C1` (stereo not shown) [Compound 561, N-((5-chloro-6-(thiazol-4-ylmethoxy)-1H-indol-2-yl)methyl)-3-methylcyclobutane-1-carboxamide]: 570 nM.
Next, `Cc1cnc(COc2cc3[nH]c(CNC(=O)N4CCCC4)cc3cc2Cl)o1` [Compound 120, N-((5-chloro-6-((5-methyloxazol-2-yl)methoxy)-1H-indol-2-yl)methyl)pyrrolidine-1-carboxamide]: 375 nM.

What is called IC50 is the concentration at which inhibition is half-maximal.
